From ChEMBL document CHEMBL4627357, “An osteoinductive effect of phytol on mouse mesenchymal stem cells (C3H10T1/2) towards osteoblasts” (Bioorg Med Chem Lett, 2020)
Activity calls are given as the source filed them. The calls are words filed in the database; no cut-off is given here.

Legend:
[1] = test system: C3H 10T1/2; assay: Induction of osteoblast differentiation in mouse C3H10T1/2 cells assessed as increase in type-1 collagen mRNA expression at 40 uM measured after 3 days by RT-qPCR analysis; type: functional, cell-based
[2] = test system: C3H 10T1/2; assay: Cytotoxicity against mouse C3H10T1/2 cells assessed as spindle shaped and flattened appearance at 40 uM measured after 72 hrs by FDA staining based assay; type: cell-based; conditions: c3h 10t1/2, 72 h
[3] = test system: C3H 10T1/2; assay: Induction of osteoblast differentiation in mouse C3H10T1/2 cells assessed as increase in type-1 collagen mRNA expression at 40 uM measured after 7 days by RT-qPCR analysis; type: functional, cell-based
[4] = test system: C3H 10T1/2; assay: Induction of osteoblast differentiation in mouse C3H10T1/2 cells assessed as increase in osterix mRNA expression at 40 uM measured after 3 to 7 days by RT-qPCR analysis; type: functional, cell-based
[5] = test system: C3H 10T1/2; assay: Induction of osteoblast differentiation in mouse C3H10T1/2 cells assessed as increase in Runx2 mRNA expression at 40 uM measured after 3 to 7 days by RT-qPCR analysis; type: functional, cell-based
[6] = Cytotoxicity against mouse C3H10T1/2 cells assessed as live cells at 40 uM measured after 72 hrs by MUSE cell analyzer (reference value: 95.8%); type: cell-based, C3H 10T1/2; conditions: read-out: Activity
[7] = test system: C3H 10T1/2; assay: Induction of osteoblast differentiation in mouse C3H10T1/2 cells assessed as upregulation of miRNA-21a mRNA expression at 40 uM measured after 7 days by RT-qPCR analysis; type: functional, cell-based
[8] = test system: C3H 10T1/2; assay: Induction of osteoblast differentiation in mouse C3H10T1/2 cells assessed as downregulation of Smad7 protein expression at 40 uM measured after 7 days by Western blot analysis; type: functional, cell-based
[9] = test system: C3H 10T1/2; assay: Cytotoxicity against mouse C3H10T1/2 cells assessed as dead cells at 40 uM measured after 72 hrs by MUSE cell analyzer (reference value: 4.2%); type: cell-based; conditions: c3h 10t1/2, 72 h
[10] = test system: C3H 10T1/2; assay: Induction of osteoblast differentiation in mouse C3H10T1/2 cells assessed as formation of mineralized nodule at 40 uM measured after 14 days by von-Kossa staining based assay; type: functional, cell-based
[11] = test system: C3H 10T1/2; assay: Induction of osteoblast differentiation in mouse C3H10T1/2 cells assessed as increase in osteocalcin mRNA expression at 40 uM measured after 3 to 7 days by RT-qPCR analysis; type: functional, cell-based
[12] = test system: C3H 10T1/2; assay: Induction of osteoblast differentiation in mouse C3H10T1/2 cells assessed as increase in calcium deposition at 40 uM measured after 14 days by alizarin red staining based assay; type: functional, cell-based
[13] = test system: C3H 10T1/2; assay: Induction of osteoblast differentiation in mouse C3H10T1/2 cells assessed as upregulation in Runx2 protein expression at 40 uM measured after 7 days by Western blot analysis; type: functional, cell-based
[14] = test system: C3H 10T1/2; assay: Induction of osteoblast differentiation in mouse C3H10T1/2 cells assessed as increase in ALP mRNA expression at 40 uM measured after 3 days by RT-qPCR analysis; type: functional, cell-based
[15] = test system: C3H 10T1/2; assay: Upregulation of Runx2 mRNA expression in mouse C3H10T1/2 at 40 uM measured after 72 hrs by SYBR green based RT-qPCR analysis; type: functional, cell-based
[16] = test system: C3H 10T1/2; assay: Induction of osteoblast differentiation in mouse C3H10T1/2 cells assessed as increase in ALP mRNA expression at 40 uM measured after 7 days by RT-qPCR analysis; type: functional, cell-based

C/C(=C\CO)CCC[C@H](C)CCC[C@H](C)CCCC(C)C [TRANS-PHYTOL]
Activity [1]: inactive | Activity [2]: Non-Toxic | Activity [3]: Active | Activity [4]: inactive | Activity [5]: Active | viability at 72 h, 40 µM [6]: 96% | Activity [7]: Active | Activity [8]: Active | Activity [9]: 4% | Activity [10]: Active | Activity [11]: inactive | Activity [12]: Active | Activity [13]: Active | Activity [14]: inactive | Activity [15]: Active | Activity [16]: Active
